Results published in patent US11351131B2, “Anti-inflammatory composition” (NEOPHARM CO., LTD., priority 2016, dated 2022).

Columns and labels:
IL-8 = experiment: Anti-inflammatory effect: IL-8 expression in atopic dermatitis-induced 3D skin model (immunohistochemistry); assay type: cell-based; conditions: compared with the atopic dermatitis-induced skin model, 72 hours, quantified immunohistochemistry, read-out: IL-8 inhibitory effect
Experimental: (§1) In order to measure the anti-inflammatory efficacy, atopic dermatitis was induced with respect to IL-8 and IL-17A, which are inflammation-inducing cytokines, and expression amounts thereof were measured.
(§2) In order to induce atopic dermatitis, the 3D culture tissue (EpiDerm Full Thickness 400, sold by MatTek) media containing Poly (I:C), TNF-α, IL-4 and IL-13 were used, and treated for 72 hours with N-(2-hydroxyethyl)octanamide at a final concentration of 100 μM. Then, the 3D culture tissue was immobilized on formalin to make a paraffin block, and the degree of expression of inflammation-inducing cytokine was evaluated.
(§3) In FIG. 1, AD represents a skin model in which atopic dermatitis was induced, and the anti-inflammatory effect was evaluated based on the expression amounts of IL-8 and IL-17A.
(§4) Further, the inhibitory effect of each cytokine was quantified based on the results obtained through the immunohistochemistry obtained in FIG. 1, and shown in FIG. 2.

IL-17A = experiment: Anti-inflammatory effect: IL-17A expression in atopic dermatitis-induced 3D skin model (immunohistochemistry); assay type: cell-based; conditions: compared with the atopic dermatitis-induced skin model, 72 hours, quantified immunohistochemistry, read-out: IL-17A inhibitory effect
Experimental: as §1, §2, §3, §4

atopic dermatitis = experiment: Atopic dermatitis improvement effect (EASI score); assay type: in vivo, human; conditions: 30 pediatric patients with atopic dermatitis, twice a day for 4 weeks
Experimental: In order to measure atopic dermatitis improvement effect, the anti-inflammatory compositions were prepared according to the following Examples. Here, the atopic dermatitis improvement effect was measured using an eczema area severity index (EASI) score. 30 pediatric patients with atopic dermatitis were treated twice a day for 4 weeks, and then effects on atopic symptoms were measured. Here, as a negative control group, a test group in which the active ingredient was not used was adopted.

[1] = tested on: human fibroblast (ATCC 2076); experiment: Confirmation of cytotoxicity (MTT cell viability); assay type: cell-based; conditions: for Cell viability (%): human fibroblast, MTT
Experimental: The cell viability for human fibroblast (ATCC 2076) was measured using the anti-inflammatory composition prepared in the following Examples.
The human fibroblast (ATCC 2076) with a concentration of 5×10^4 cells/ml was inoculated into a 24-well culture plate of Iscove's Modified Dulbecco's Medium (IMDM, GIBCO) containing 10% bovine serum. […] Then, the supernatant was removed, the cells were washed with 200 μl of 5% phosphate buffered saline (PBS), 1.0 ml of MTT solution was added to each well, and after 4 hours, and the MTT was removed. Next, 1.0 ml of DMSO was added to each well, and incubation was performed overnight at 37° C. The absorbance at 570 nm was measured to determine the cell viability using Equation 1 below, and results thereof are shown in Table 1 below. Here, as a negative control group, a test group in which the active ingredient was not used was adopted. Cell viability (%)=(A570λ value/B570λ value)×100 [Equation 1]
A: Absorbance value at 570 nm of Example
B: Absorbance value at 570 nm of negative control group

CCCCCCCC(=O)NCCO [Example 1, N-(2-hydroxyethyl)octanamide]
inhibition at 100 µM (IL-8): ≥ 48.6%
inhibition at 100 µM (IL-17A): ≥ 57.5%
Atopic dermatitis improvement effect (EASI score) (atopic dermatitis): significant numerical decrease
Cytotoxicity ([1]; in the concentration range of the evaluation method): no cytotoxicity
Cell viability (%) ([1]; used amount 0.00064 μM): 100%
Cell viability (%) ([1]; used amount 0.0032 μM): 102%
Cell viability (%) ([1]; used amount 0.016 μM): 97%
Cell viability (%) ([1]; used amount 0.08 μM): 98%
Cell viability (%) ([1]; used amount 0.4 μM): 98%
Cell viability (%) ([1]; used amount 2 μM): 101%
Cell viability (%) ([1]; used amount 10 μM): 103%
Cell viability (%) ([1]; used amount 50 μM): 98%
Cell viability (%) ([1]; used amount 250 μM): 109%
